One may read the inhibition as the change of the read-out against control, counted positive when it falls.

For the assay, the target named is T1, human oxytocin receptor (Homo sapiens, UniProt P30559).
T1 construct: host or cells: CHO cells (pcDNA3.1 vector)
T1 sequence (P30559 1-389): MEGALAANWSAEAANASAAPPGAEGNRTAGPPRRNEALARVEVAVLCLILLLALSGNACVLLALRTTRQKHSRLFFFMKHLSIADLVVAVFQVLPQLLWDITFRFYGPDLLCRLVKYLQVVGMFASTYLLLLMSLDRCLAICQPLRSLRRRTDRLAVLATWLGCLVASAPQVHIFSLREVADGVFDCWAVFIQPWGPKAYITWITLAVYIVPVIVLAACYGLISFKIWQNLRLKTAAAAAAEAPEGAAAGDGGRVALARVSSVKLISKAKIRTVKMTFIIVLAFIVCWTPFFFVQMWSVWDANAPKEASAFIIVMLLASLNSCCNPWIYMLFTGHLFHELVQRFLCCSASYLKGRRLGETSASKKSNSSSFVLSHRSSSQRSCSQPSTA
Put plainly: Oxytocin binding in Chinese Hamster Ovary cell membranes expressing human oxytocin receptors. The settings on record: 100 nM, CHO cell membranes, [3H]oxytocin, values without parentheses, read-out: OT % inhibition @ 100% nM.

In the case of `COc1cc(-c2ccccc2C)c(Cl)cc1C(=O)N1Cc2ccc(C(=O)N3CCN(CCCN(C)C)CC3)n2Cc2ccccc21` [Example 251, {10-[(6-Chloro-3-methoxy-2′-methyl[1,1′-biphenyl]-4-yl)carbonyl]-10,11-dihydro-5H-pyrrolo[2,1-c][1,4]benzodiazepin-3-yl}{4-[3-(dimethylamino)propyl]-1-piperazinyl}methanone], the inhibition at 0.1 µM turned out to be 87%.

For `COc1ccccc1-c1ccc(C(=O)N2Cc3ccc(C(=O)NCCCN(C)C)n3Cc3ccccc32)cc1C` [Example 72, N-[3-(Dimethylamino)propyl]-10-[(2′-methoxy-2-methyl[1,1′-biphenyl]-4-yl)carbonyl]-10,11-dihydro-5H-pyrrolo[2,1-c][1,4]benzodiazepine-3-carboxamide], the inhibition at 0.1 µM worked out at 74%.

Regarding `COc1cc(C(=O)N2Cc3ccc(C(=O)NCCC4CCCN4C)n3Cc3ccccc32)ccc1-n1c(C)ccc1C` (stereo not shown) [Example 315, 10-[4-(2,5-Dimethyl-1H-pyrrol-1-yl)-3-methoxybenzoyl]-N-[2-(1-methyl-2-pyrrolidinyl)ethyl]-10,11-dihydro-5H-pyrrolo[2,1-c][1,4]benzodiazepine-3-carboxamide], the inhibition at 0.1 µM worked out at 10%.

On to `COc1cccc(-c2cc(OC)c(C(=O)N3Cc4ccc(C(=O)N5CCN(CCCN(C)C)CC5)n4Cc4ccccc43)cc2Cl)c1` [Example 252, {10-[(6-Chloro-3,3′-dimethoxy[1,1′-biphenyl]-4-yl)carbonyl]-10,11-dihydro-5H-pyrrolo[2,1-c][1,4]benzodiazepin-3-yl}{4-[3-(dimethylamino)propyl]-1-piperazinyl}methanone], for which the inhibition at 0.1 µM was 72%.

With `Cc1ccccc1-c1ccc(C(=O)N2Cc3ccc(C(=O)N4CCCN(C)CC4)n3Cc3ccccc32)cc1C` [Example 63, {10-[(2,2′-Dimethyl[1,1′-biphenyl]-4-yl)carbonyl]-10,11-dihydro-5H-pyrrolo[2,1-c][1,4]benzodiazepin-3-yl}(4-methyl-1,4-diazepan-1-yl)methanone], the inhibition at 0.1 µM was found to be 98%.

On to `COc1ccccc1-c1ccc(C(=O)N2Cc3ccc(C(=O)N4CCN(C)CC4)n3Cc3ccccc32)cc1OC` [Example 56, {10-[(2,2′-Dimethoxy[1,1′-biphenyl]-4-yl)carbonyl]-10,11-dihydro-5H-pyrrolo[2,1-c][1,4]benzodiazepin-3-yl}(4-methyl-1-piperazinyl)methanone], for which the inhibition at 0.1 µM was 68%.

With `COc1cccc(-c2ccc(C(=O)N3Cc4ccc(C(=O)N5CCN(CCCN(C)C)CC5)n4Cc4ccccc43)cc2C)c1` [Example 248, {4-[3-(Dimethylamino)propyl]-1-piperazinyl}{10-[(3′-methoxy-2-methyl[1,1′-biphenyl]-4-yl)carbonyl]-10,11-dihydro-5H-pyrrolo[2,1-c][1,4]benzodiazepin-3-yl}methanone], the inhibition at 0.1 µM is 77%.

In the case of `COc1cc(C(=O)N2Cc3ccc(C(=O)N4CCN(C)CC4)n3Cc3ccccc32)ccc1-n1c(C)ccc1C` [Example 306, {10-[4-(2,5-Dimethyl-1H-pyrrol-1-yl)-3-methoxybenzoyl]-10,11-dihydro-5H-pyrrolo[2,1-c][1,4]benzodiazepin-3-yl}(4-methyl-1-piperazinyl)methanone], the inhibition at 0.1 µM amounted to 34%.

Take `COc1cccc(-c2cc(OC)c(C(=O)N3Cc4ccc(C(=O)N[C@@H](Cc5c[nH]cn5)C(N)=O)n4Cc4ccccc43)cc2Cl)c1` [Example 287, N-[(1S)-2-Amino-1-(1H-imidazol-4-ylmethyl)-2-oxoethyl]-10-[(6-chloro-3,3′-dimethoxy[1,1′-biphenyl]-4-yl)carbonyl]-10,11-dihydro-5H-pyrrolo[2,1-c][1,4]benzodiazepine-3-carboxamide]: the inhibition at 0.1 µM was 88%.

On to `COc1cc(-c2ccccc2C)c(Cl)cc1C(=O)N1Cc2ccc(C(=O)NCCCN(C)C)n2Cc2ccccc21` [Example 78, 10-[(6-Chloro-3-methoxy-2′-methyl[1,1′-biphenyl]-4-yl)carbonyl]-N-[3-(dimethylamino)propyl]-10,11-dihydro-5H-pyrrolo[2,1-c][1,4]benzodiazepine-3-carboxamide], for which the inhibition at 0.1 µM came out at 62%.
